Data reported in ChEMBL document CHEMBL6182943, “Identification of 4'-Thiouridine as an Orally Available Antiviral Agent Targeting Both RdRp and NiRAN Functions of SARS-CoV-2 Nsp12” (J Med Chem, 2025).
Active and inactive are the calls of the source. No cut-off for these calls is given here.

Tests used:
[1] = Cytotoxicity against human H1-HeLa cells assessed as reduction in cell viability incubated for 72 hrs; type: toxicity, cell-based
[2] = Selectivity index, ratio of CC50 for cytotoxicity against human H1-HeLa cells to EC50 for antiviral activity against Human rhinovirus B14 infected in human H1-HeLa cells; type: toxicity, cell-based; conditions: read-out: Ratio CC50/EC50
rhinovirus B14 = assay: Antiviral activity against Human rhinovirus B14 infected in human H1-HeLa cells incubated for 72 hrs; type: functional, organism-based; conditions: Rhinovirus B
SARS-CoV-2 [3] = assay: Antiviral activity against SARS-CoV-2 infected in African green monkey Vero cells assessed as reduction in viral N protein level measured after 1 day by Western blot analysis; type: functional, organism-based; conditions: Severe acute respiratory syndrome coronavirus 2, dose 0.1-10 µM
SARS-CoV-2 [4] = assay: (§1) Antiviral activity against SARS-CoV-2 infected in hACE2 expressing female B6.Cg-Tg(K18-ACE2)2Prlmn/J mouse model assessed as reduction in body weight loss at 100 mg/kg, po preadministered twice daily for 4 days at 8 hrs interval with four hours before and after viral challenge and measured 9 days post viral challenge; type: functional, organism-based; conditions: Severe acute respiratory syndrome coronavirus 2, time 9.0 day
SARS-CoV-2 [5] = assay: (§2) Antiviral activity against SARS-CoV-2 Wuhan-like (hCoV-19/Korea/KCDC06/2020) infected in human Calu-3 cells assessed as reduction in number of spike-protein expressing cells pre-infected for 30 mins followed by compound addition and measured 48 hrs post-infection by DAPI staining based immunofluorescence analysis relative to control; type: functional, organism-based; conditions: Severe acute respiratory syndrome coronavirus 2, Wuhan-like (hCoV-19/Korea/KCDC06/2020)
SARS-CoV-2 [6] = assay: (§3) Antiviral activity against SARS-CoV-2 infected in african green monkey Vero cells assessed as reduction in number of spike-protein expressing cells pre-infected for 30 mins followed by compound addition and measured 48 hrs post-infection by DAPI staining based immunofluorescence analysis; type: functional, organism-based; conditions: Severe acute respiratory syndrome coronavirus 2, Vero
[7] = Tmax in male ICR mouse at 10 mg/kg, po measured after 24 hrs by LC-MS/MS analysis; type: ADME, organism-based; conditions: in vivo
[8] = MRTlast in male ICR mouse at 10 mg/kg, po measured after 24 hrs by LC-MS/MS analysis; type: ADME, organism-based; conditions: in vivo
SARS-CoV-2 [9] = assay: Antiviral activity against SARS-CoV-2 infected in African green monkey Vero cells assessed as reduction in viral RNA copy number at 0.1 to 10 uM measured after 1 day by qRT-PCR analysis; type: functional, organism-based; conditions: Severe acute respiratory syndrome coronavirus 2, dose 0.1-10 µM
Influenza A virus (H1N1) = assay: Antiviral activity against Influenza A virus A/Puerto Rico/8/34 (H1N1) infected in MDCK cells assessed as reduction in virus-induced cytopathic effect incubated for 3 days in presence of TPCK-treated trypsin by MTT assay; type: functional, organism-based; conditions: 72 h
[10] = AUCinfinity in male ICR mouse at 5 mg/kg, iv measured after 24 hrs by LC-MS/MS analysis; type: ADME, organism-based; conditions: in vivo
Influenza A virus = assay: Antiviral activity against Influenza A virus A/Hong Kong/8/68 (H3N2) infected in MDCK cells assessed as reduction in virus-induced cytopathic effect incubated for 3 days in presence of TPCK-treated trypsin by MTT assay; type: functional, organism-based; conditions: 72 h
[11] = MRTinfinity in male ICR mouse at 5 mg/kg, iv measured after 24 hrs by LC-MS/MS analysis; type: ADME, organism-based; conditions: in vivo
[12] = Oral bioavailability in male ICR mouse at 10 mg/kg measured after 24 hrs by LC-MS/MS analysis; type: ADME, organism-based; conditions: in vivo
Human coronavirus NL63 = assay: Antiviral activity against HCoV-NL63 infected in LLC-MK2 cells assessed as inhibition of virus-induced cytopathic effect measured 2 to 7 days post infection by MTT-based cell viability assay; type: functional, organism-based
[13] = Cytotoxicity against rhesus monkey LLC-MK2 cells assessed as reduction in cell viability by MTT-based cell viability assay; type: toxicity, Macaca mulatta
Zaire ebolavirus = assay: Antiviral activity against Zaire Ebola virus infected in HEK293T cells transfected with viral replication protein and Renilla luciferase pre-infected for 4 hrs followed by compound addition and measured after 48 hrs by Dual-luciferase reporter assay; type: functional, organism-based; conditions: HEK-293T
[14] = AUClast in male ICR mouse at 5 mg/kg, iv measured after 24 hrs by LC-MS/MS analysis; type: ADME, organism-based; conditions: in vivo
[15] = Cytotoxicity against golden hamster BHK-21 cells assessed as reduction in cell viability by MTT assay; type: toxicity, cell-based, Mesocricetus auratus
SARS-CoV-2 [16] = assay: as §3, with “expressing cells at 30 uM pre-infected for” for “expressing cells pre-infected for”, “immunofluorescence analysis relative to control” for “immunofluorescence analysis”; type: functional, Severe acute respiratory syndrome coronavirus 2; design: scale not given: the % may be the effect or the level left; conditions: time 47.5 hrs
SARS-CoV-2 [17] = assay: as §2, with “Omicron (hCoV-19/Korea/KDCA447321/2021)” for “Wuhan-like (hCoV-19/Korea/KCDC06/2020)”; type: functional, organism-based; conditions: Severe acute respiratory syndrome coronavirus 2, Omicron (hCoV-19/Korea/KDCA447321/2021)
SARS-CoV-2 [18] = assay: Antiviral activity against SARS-CoV-2 infected in hACE2 expressing female B6.Cg-Tg(K18-ACE2)2Prlmn/J mouse model assessed as survival rate at 100 mg/kg, po preadministered twice daily for 4 days at 8 hrs interval with four hours before and after viral challenge and measured 14 days post viral challenge relative to control; type: functional; conditions: Severe acute respiratory syndrome coronavirus 2, 336 h, time 14 day
[19] = Terminal half-life in male ICR mouse at 5 mg/kg, iv measured after 24 hrs by LC-MS/MS analysis; type: ADME, organism-based; conditions: in vivo, read-out: beta t1/2 (converted)
[20] = AUClast in male ICR mouse at 10 mg/kg, po measured after 24 hrs by LC-MS/MS analysis; type: ADME, organism-based; conditions: in vivo
SARS-CoV-2 [21] = assay: as §1, with “50” for “100”, “14” for “9”; type: functional, organism-based; conditions: Severe acute respiratory syndrome coronavirus 2, time 14.0 day
[22] = Cytotoxicity against MDCK cells assessed as reduction in cell viability incubated for 3 days by MTT assay; type: toxicity, cell-based, Canis lupus familiaris; conditions: dog, time 3 day
dengue virus type 2 = assay: Antiviral activity against Dengue virus 2 infected in BHK-21 cells transfected with Renilla luciferase tagged viral subgenomic replicon incubated for 48 hrs by luciferase based assay; type: functional, organism-based; conditions: BHK-21, 48 h
[23] = Terminal half-life in male ICR mouse at 10 mg/kg, po measured after 24 hrs by LC-MS/MS analysis; type: ADME, organism-based; conditions: in vivo, read-out: beta t1/2 (converted)
SARS-CoV-2 [24] = assay: as §1, with “14” for “9”; type: functional, organism-based; conditions: Severe acute respiratory syndrome coronavirus 2, time 14.0 day
[25] = AUCinfinity in male ICR mouse at 10 mg/kg, po measured after 24 hrs by LC-MS/MS analysis; type: ADME, organism-based; conditions: in vivo
[26] = test system: Middle East respiratory syndrome-related coronavirus; assay: Antiviral activity against MERS-CoV KOR/KNIH/002_05_2015 infected in human Huh-7 cells assessed as inhibition of virus-induced cytopathic effect measured 2 to 7 days post infection by MTT-based cell viability assay; type: functional, organism-based; conditions: KOR/KNIH/002_05_2015, Huh-7
[27] = Cytotoxicity against HEK293T cells assessed as reduction in cell viability measured after 48 hrs by MTT assay; type: toxicity, cell-based, HEK-293T; conditions: human
[28] = Cytotoxicity against African green monkey Vero cells assessed as reduction in cell viability incubated for 48 hrs by MTT assay; type: toxicity, cell-based; conditions: chlorocebus sabaeus
[29] = MRTinfinity in male ICR mouse at 10 mg/kg, po measured after 24 hrs by LC-MS/MS analysis; type: ADME, organism-based; conditions: in vivo
[30] = MRTlast in male ICR mouse at 5 mg/kg, iv measured after 24 hrs by LC-MS/MS analysis; type: ADME, organism-based; conditions: in vivo
SARS-CoV-2 [31] = assay: as §2, with “Delta (hCoV-19/Korea/KDCA119861/2021)” for “Wuhan-like (hCoV-19/Korea/KCDC06/2020)”; type: functional, organism-based; conditions: Severe acute respiratory syndrome coronavirus 2, Delta (hCoV-19/Korea/KDCA119861/2021)
[32] = Cytotoxicity against human Huh-7 cells assessed as reduction in cell viability by MTT-based cell viability assay; type: toxicity
Influenza B virus = assay: Antiviral activity against Influenza B virus B/Lee/40 infected in MDCK cells assessed as reduction in virus-induced cytopathic effect incubated for 3 days in presence of TPCK-treated trypsin by MTT assay; type: functional, organism-based; conditions: B/Lee/40, MDCK, 72 h
SARS-CoV-2 [33] = assay: Antiviral activity against SARS-CoV-2 infected in african green monkey Vero cells assessed as nuclear occupancy at 30 uM pre-infected for 30 mins followed by compound addition and measured 48 hrs post-infection by DAPI staining based immunofluorescence analysis relative to control; type: functional, Severe acute respiratory syndrome coronavirus 2; conditions: time 47.5 hrs
[34] = Cytotoxicity against human Calu-3 cells assessed as reduction in cell viability incubated for 48 hrs by MTT assay; type: toxicity, cell-based
SARS-CoV-2 [35] = assay: as §2, with “Gamma (hCoV-19/Korea95637/KDCA/2021)” for “Wuhan-like (hCoV-19/Korea/KCDC06/2020)”; type: functional, organism-based; conditions: Severe acute respiratory syndrome coronavirus 2, Gamma (hCoV-19/Korea95637/KDCA/2021)
SARS-CoV-2 [36] = assay: Antiviral activity against SARS-CoV-2 infected in African green monkey Vero cells assessed as reduction in viral N protein level at 1 to 10 uM measured after 1 day by Western blot analysis relative to control; type: functional, Severe acute respiratory syndrome coronavirus 2; design: scale not given: the % may be the effect or the level left; conditions: dose 1-10 µM
[37] = Clearance in male ICR mouse at 5 mg/kg, iv measured after 24 hrs by LC-MS/MS analysis; type: ADME, organism-based; conditions: in vivo
[38] = Cmax in male ICR mouse at 10 mg/kg, po measured after 24 hrs by LC-MS/MS analysis; type: ADME, organism-based; conditions: in vivo

SMILES: CCOC(=O)/C=C/[C@H](C[C@@H]1CCNC1=O)NC(=O)[C@@H](CC(=O)[C@@H](NC(=O)c1cc(C)on1)C(C)C)Cc1ccc(F)cc1
- CC50 at 72 h [1]: > 100 µM
- selectivity ratio [2]: > 176
- EC50 (rhinovirus B14): 0.57 µM

SMILES: O=c1ccn([C@@H]2S[C@H](CO)[C@@H](O)[C@H]2O)c(=O)[nH]1
- Activity (SARS-CoV-2 [3]): Dose-dependent-effect
- Activity (SARS-CoV-2 [4]): Active
- EC50 (SARS-CoV-2 [5]): 4.08 µM
- EC50 (SARS-CoV-2 [6]): 1.71 µM
- Tmax [7]: 1 h
- MRT last at 24 h [8]: 6.84 h
- Activity (SARS-CoV-2 [9]): Active
- EC50 (Influenza A virus (H1N1)): 13.4 µM
- AUC(0-inf) [10]: 20500 ng·h/mL
- EC50 (Influenza A virus): 15.3 µM
- MRT inf [11]: 11.4 h
- bioavailability [12]: 109%
- EC50 (Human coronavirus NL63): 4.53 µM
- CC50 [13]: > 100 µM
- EC50 (Zaire ebolavirus): 33 µM
- AUC(0-t) at 24 h [14]: 17500 ng·h/mL
- CC50 [15]: 93.7 µM
- Activity (SARS-CoV-2 [16]): >80%
- EC50 (SARS-CoV-2 [17]): 2.66 µM
- survival at 100 mg/kg (SARS-CoV-2 [18]): 40%
- half-life [19]: 8.87 h
- CC50 at 72 h [1]: > 100 µM
- AUC(0-t) at 24 h [20]: 38000 ng·h/mL
- Activity (SARS-CoV-2 [21]): inactive
- CC50 at 72 h [22]: > 100 µM
- EC50 (dengue virus type 2): 42 µM
- half-life [23]: 8.2 h
- Activity (SARS-CoV-2 [24]): Active
- AUC(0-inf) [25]: 43600 ng·h/mL
- EC50 [26]: 4.04 µM
- CC50 at 48 h [27]: 81.1 µM
- CC50 at 48 h [28]: > 100 µM
- MRT inf [29]: 10.5 h
- MRT last at 24 h [30]: 7.16 h
- EC50 (SARS-CoV-2 [31]): 7.6 µM
- CC50 [32]: > 100 µM
- EC50 (Influenza B virus): 20.4 µM
- EC50 (rhinovirus B14): 23.7 µM
- Activity (SARS-CoV-2 [33]): >80%
- CC50 at 48 h [34]: > 100 µM
- EC50 (SARS-CoV-2 [35]): 3.48 µM
- Activity (SARS-CoV-2 [36]): 100%
- clearance [37]: 4.17 mL/min/kg
- Cmax [38]: 4980 ng/mL
